Among the data in patent publication US11447497B2, “(S)-3-(2-(4-(benzyl)-3-oxopiperazin-1-yl)acetamido)-4-oxo-5-(2,3,5,6-tetrafluorophenoxy)pentanoic acid derivatives and related compounds as caspase inhibitors for treating cardiovascular diseases” (HISTOGEN, INC., priority 2018, dated 2022) are IC50 values, retold here.

What all share (type): biochemical
One assay deals with Caspase-3 (Homo sapiens (Human), UniProt P42574). Put plainly: Caspase-3 assay, inhibition of caspase activity. Particulars: human caspase-3. The method, then: (§1) Assay for the Inhibition of Caspase Activity and Determination of IC50 Values
Sequence of Caspase-3 (P42574 29-175): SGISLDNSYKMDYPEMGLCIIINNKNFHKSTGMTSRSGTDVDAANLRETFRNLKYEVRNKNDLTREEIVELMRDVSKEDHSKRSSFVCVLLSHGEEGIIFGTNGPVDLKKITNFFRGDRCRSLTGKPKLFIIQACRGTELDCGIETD
Sequence of Caspase-3 (P42574 176-277): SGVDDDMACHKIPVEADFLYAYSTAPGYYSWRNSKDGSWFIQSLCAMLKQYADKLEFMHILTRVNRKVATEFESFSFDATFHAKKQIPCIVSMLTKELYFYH
(§2) Human caspases were purchased from Enzo Biosciences and used according to the manufacturer's instructions. An exemplary caspase assay, for Caspase-1, is provided below:
(§3) The data was graphed as OD405 nm vs time, and the slope was determined over the linear portion of the curve. The rates in OD/min were converted to substrate/min using an extinction coefficient for p-nitroaniline of 10,500 M-1 cm-1, and were adjusted for pathlength of sample. Similarly assays were conducted for Caspase-3, Caspase-8 and Caspase-9. The Table below provides a summary of the binding data for the compounds prepared according to Examples 1-4: […]

For another assay, the target named is Caspase-1 (Homo sapiens (Human), UniProt P29466). Kind of assay: Caspase-1 assay, inhibition of caspase activity (Ac-YVAD-pNA substrate). To be noted: human caspase-1, Ac-YVAD-pNA 200 μM, read at 405 nm. The method, then: as §1, §2
Sequence of Caspase-1 (P29466 120-297): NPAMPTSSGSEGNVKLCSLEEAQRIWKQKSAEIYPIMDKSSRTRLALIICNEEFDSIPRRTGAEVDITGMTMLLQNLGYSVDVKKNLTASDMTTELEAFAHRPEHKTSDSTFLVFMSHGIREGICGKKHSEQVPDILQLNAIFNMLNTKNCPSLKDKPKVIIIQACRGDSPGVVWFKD
Sequence of Caspase-1 (P29466 317-404): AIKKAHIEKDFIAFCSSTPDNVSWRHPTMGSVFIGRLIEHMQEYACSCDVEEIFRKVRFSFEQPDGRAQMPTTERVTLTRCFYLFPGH
Caspase-1 was diluted to 10 U/μl in assay buffer consisting of 50 mM HEPES, pH 7.4, 100 mM NaCl, 0.1% CHAPS, 1 mM EDTA, 10% glycerol and 10 mM DTT.
45 μl of assay buffer was added into ½ volume microtiter plate. The plate was allowed to equilibrate to assay temperature. 5 μl of Caspase-1 (10 U/μl) was added to each appropriate well. Two 2 blank wells containing just assay buffer without Caspase-1 were included on the plate.
The reaction was started by the addition of 50 μl Ac-YVAD-pNA substrate, for a final substrate concentration of 200 μM. The reaction was continuously monitored at 405 nm.
as §3

Another assay has as its target Caspase-9 (Homo sapiens (Human), UniProt P55211). Put plainly: Caspase-9 assay, inhibition of caspase activity. To be noted: human caspase-9. The method, then: as §1, §2, §3
A further assay addresses Caspase-8 (Homo sapiens (Human), UniProt Q14790). Put plainly: Caspase-8 assay, inhibition of caspase activity. Particulars: human caspase-8. The method, then: as §1, §2, §3

Molecules are shown by their SMILES.

Sequence of Caspase-8 (Q14790 217-374): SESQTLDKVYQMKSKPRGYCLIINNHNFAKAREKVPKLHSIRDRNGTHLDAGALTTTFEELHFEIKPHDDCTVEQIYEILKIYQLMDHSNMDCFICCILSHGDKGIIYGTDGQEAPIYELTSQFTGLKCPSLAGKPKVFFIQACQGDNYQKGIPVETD
Sequence of Caspase-8 (Q14790 385-479): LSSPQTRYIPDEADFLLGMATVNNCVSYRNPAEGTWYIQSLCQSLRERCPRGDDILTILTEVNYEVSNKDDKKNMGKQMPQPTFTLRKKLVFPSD
Sequence of Caspase-9 (P55211 1-315): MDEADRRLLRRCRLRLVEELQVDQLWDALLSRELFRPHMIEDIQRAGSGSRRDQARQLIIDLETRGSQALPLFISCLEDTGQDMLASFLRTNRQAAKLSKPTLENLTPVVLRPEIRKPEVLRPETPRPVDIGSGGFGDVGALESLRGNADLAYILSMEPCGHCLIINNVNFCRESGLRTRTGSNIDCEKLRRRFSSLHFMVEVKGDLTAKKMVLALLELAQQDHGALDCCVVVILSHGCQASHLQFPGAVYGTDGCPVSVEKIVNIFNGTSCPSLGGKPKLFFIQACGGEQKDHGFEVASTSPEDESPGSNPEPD
Sequence of Caspase-9 (P55211 331-416): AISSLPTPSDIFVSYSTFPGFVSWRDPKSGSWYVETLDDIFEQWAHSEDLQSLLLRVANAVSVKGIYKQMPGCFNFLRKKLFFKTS

In the case of `O=C(O)C[C@H](NC(=O)CN1CCN(S(=O)(=O)c2ccccc2)CC1)C(=O)COc1c(F)c(F)cc(F)c1F` [Example 4, (S)-4-oxo-3-(2-(4-(phenylsulfonyl)piperazin-1-yl)acetamido)-5-(2,3,5,6-tetrafluorophenoxy)pentanoic acid], the IC50 – broadly, the point on the concentration scale where inhibition reaches its midpoint – amounted to 0.2 µM on Caspase-3, 0.002 µM on Caspase-1, 0.107 µM at Caspase-9 and 0.001 µM against Caspase-8.

On to `O=C(O)C[C@H](NC(=O)CN1CCN(Cc2ccccc2)CC1=O)C(=O)COc1c(F)c(F)cc(F)c1F` [Example 2, (S)-3-(2-(4-Benzyl-2-oxopiperazin-1-yl)acetamido)-4-oxo-5-(2,3,5,6-tetrafluorophenoxy)pentanoic acid], for which the IC50 at Caspase-3 was found to be 0.032 µM; against Caspase-1, 0.004 µM; against Caspase-9, 0.038 µM; against Caspase-8, 0.028 µM.

In the case of `O=C(O)C[C@H](NC(=O)CN1CCN(Cc2ccccc2)C(=O)C1)C(=O)COc1ccnc(C(F)(F)F)n1` [Example 3, (S)-3-(2-(4-Benzyl-3-oxopiperazin-1-yl)acetamido)-4-oxo-5-((2-(trifluoromethyl)pyrimidin-4-yl)oxy)pentanoic acid], the IC50 on Caspase-3 worked out at 1 µM; on Caspase-1, 0.065 µM; against Caspase-9, 1 µM; against Caspase-8, 0.396 µM.

In the case of `O=C(O)C[C@H](NC(=O)CN1CCN(Cc2ccccc2)C(=O)C1)C(=O)COc1c(F)c(F)cc(F)c1F` [Example 1, (S)-3-(2-(4-Benzyl-3-oxopiperazin-1-yl)acetamido)-4-oxo-5-(2,3,5,6-tetrafluorophenoxy)pentanoic acid], the IC50 at Caspase-3 was 0.132 µM; on Caspase-1, 0.009 µM; against Caspase-9, 0.122 µM; against Caspase-8, 0.132 µM.
